According to PubChem BioAssay AID248 (DTP/NCI, 2004):
Values joined by “and” are separate entries in the source; they are usually repeats but may differ in a detail not shown here. Equal entries are not always repeated. Inconclusive results and toxic doses are left out. Rule as the data show it: active = T/C of 150% or more; inactive = T/C below 125%.

System: L1210 leukemia ip in BDF1 mice, survival T/C
Assay: NCI In Vivo Anticancer Drug Screen. Data for tumor model L1210 Leukemia (intraperitoneal) in B6D2F1 (BDF1) mice
Settings: endpoint: mean survival time, higher = longer survival
In short: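 Tumor cells were implanted, animals were treated, and survival was followed. The result divides the treated measurement by the vehicle-control measurement.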

Measured: T/C

C[N+](C)(C)c1ccc(/C=C2/CCCCC2=O)cc1
inactive: dose: 12.5 mg/kg/injection, schedule: Q01DX009 (ip), vehicle: saline 117 % of control | dose: 12.5 mg/kg/injection, schedule: Q04DX003 (ip), vehicle: saline 97 % of control | dose: 25.0 mg/kg/injection, schedule: Q01DX009 (ip), vehicle: saline 100 % of control | dose: 25.0 mg/kg/injection, schedule: Q04DX003 (ip), vehicle: saline 92 % of control | dose: 50.0 mg/kg/injection, schedule: Q01DX009 (ip), vehicle: saline 103 % of control | dose: 50.0 mg/kg/injection, schedule: Q04DX003 (ip), vehicle: saline 106 % of control

N#CCCP(=S)(CCC#N)CCC#N
inactive: dose: 100.0 mg/kg/injection, schedule: Q04DX002 (ip), vehicle: Klucel (hydroxypropylcellulose) (HPC) 94 % of control | dose: 200.0 mg/kg/injection, schedule: Q04DX002 (ip), vehicle: Klucel (hydroxypropylcellulose) (HPC) 112 % of control | dose: 400.0 mg/kg/injection, schedule: Q04DX002 (ip), vehicle: Klucel (hydroxypropylcellulose) (HPC) 105 % of control

CC(=O)[C@H]1CC[C@H]2[C@@H]3CCC4=CC(=O)[C@H](C)C[C@]4(C)[C@@]3(F)[C@@H](O)C[C@]12C
inactive: dose: 125.0 mg/kg/injection, schedule: Q01DX Z (sc), vehicle: steriod suspending solution 105 % of control | dose: 250.0 mg/kg/injection, schedule: Q01DX Z (sc), vehicle: steriod suspending solution 111 % of control | dose: 375.0 mg/kg/injection, schedule: Q01DX Z (sc), vehicle: steriod suspending solution 105 % of control | dose: 500.0 mg/kg/injection, schedule: Q01DX Z (sc), vehicle: steriod suspending solution 103 % of control

O=C(O)c1cscc1Cc1cccs1
inactive: dose: 100.0 mg/kg/injection, schedule: Q01DX001 (ip), vehicle: saline with Tween-80 96 % of control | dose: 200.0 mg/kg/injection, schedule: Q01DX001 (ip), vehicle: saline with Tween-80 96 % of control | dose: 400.0 mg/kg/injection, schedule: Q01DX001 (ip), vehicle: saline with Tween-80 103 % of control

CC(=O)CC(C)=O.CCCCC(C[C-]=O)N(CC)CC.[Pd+2] (stereo not drawn)
inactive: dose: 2.4 mg/kg/injection, schedule: Q04DX003 (ip), vehicle: distilled water + Tween-80 97 % of control | dose: 4.7 mg/kg/injection, schedule: Q04DX003 (ip), vehicle: distilled water + Tween-80 101 % of control | dose: 9.4 mg/kg/injection, schedule: Q04DX003 (ip), vehicle: distilled water + Tween-80 98 % of control | dose: 18.8 mg/kg/injection, schedule: Q04DX003 (ip), vehicle: distilled water + Tween-80 90 % of control

CCCCCCCC[As](C)(=O)O
inactive: dose: 6.25 mg/kg/injection, schedule: Q01DX009 (ip), vehicle: saline with Tween-80 89 % of control

CN(C)CSc1nc2ccccc2s1
inactive: dose: 50.0 mg/kg/injection, schedule: Q01DX009 (ip), vehicle: saline with Tween-80 93 % of control | dose: 100.0 mg/kg/injection, schedule: Q01DX009 (ip), vehicle: saline with Tween-80 89 % of control | dose: 200.0 mg/kg/injection, schedule: Q01DX009 (ip), vehicle: saline with Tween-80 93 % of control

CNC(=N)c1ccc(NC(=N)c2ccc(NC(=N)c3ccc(NC(=O)c4ccc(C(=N)NC)cc4)cc3)cc2)cc1
inactive: dose: 3.75 mg/kg/injection, schedule: Q01DX015 (ip), vehicle: water 104 % of control | dose: 7.5 mg/kg/injection, schedule: Q01DX015 (ip), vehicle: water 101 % of control | dose: 15.0 mg/kg/injection, schedule: Q01DX015 (ip), vehicle: water 108 % of control | dose: 50.0 mg/kg/injection, schedule: Q01DX015 (ip), vehicle: water 97 % of control
active: dose: 20.0 mg/kg/injection, schedule: Q01DX Z (ip), vehicle: water 177 % of control | dose: 30.0 mg/kg/injection, schedule: Q01DX015 (ip), vehicle: water 176 % of control and 180 % of control

CCC1C(CC(=O)O)=C(C)NC(C)=C1CC(=O)O
inactive: dose: 100.0 mg/kg/injection, schedule: Q01DX009 (ip), vehicle: Klucel (hydroxypropylcellulose) (HPC) 109 % of control | dose: 200.0 mg/kg/injection, schedule: Q01DX009 (ip), vehicle: Klucel (hydroxypropylcellulose) (HPC) 90 % of control

CNC(CCc1ccccc1)C(=O)O (stereo not drawn)
inactive: dose: 100.0 mg/kg/injection, schedule: Q01DX009 (ip), vehicle: saline sonified 98 % of control | dose: 100.0 mg/kg/injection, schedule: Q04DX003 (ip), vehicle: saline with Tween-80 100 % of control | dose: 200.0 mg/kg/injection, schedule: Q01DX009 (ip), vehicle: saline sonified 101 % of control | dose: 200.0 mg/kg/injection, schedule: Q04DX003 (ip), vehicle: saline with Tween-80 99 % of control | dose: 400.0 mg/kg/injection, schedule: Q01DX009 (ip), vehicle: saline sonified 93 % of control | dose: 400.0 mg/kg/injection, schedule: Q04DX003 (ip), vehicle: saline with Tween-80 99 % of control
